Results: US9346761B2, “Arginine methyltransferase inhibitors and uses thereof” (Epizyme, Inc., priority 2013, dated 2016)

Tests used:
Full-length human PRMT8 = biological target: T1, Full-length human PRMT8 (Homo sapiens, UniProt Q9NR22); test: PRMT8 biochemical assay (3H-SAM Flashplate, peptide substrate)
T1 construct: Full-length human PRMT8 (NM_019854.4) isoform 1 transcript clone; made in house
From the text: General Materials. S-adenosylmethionine (SAM), S-adenosylhomocysteine (SAH), bicine, Tween20, dimethylsulfoxide (DMSO), bovine skin gelatin (BSG), isopropyl-β-D-thiogalactopyranoside (IPTG), and Tris(2-carboxyethyl)phosphine hydrochloride solution (TCEP) were purchased from Sigma-Aldrich at the highest level of purity possible. ^3H-SAM was purchase from American Radiolabeled Chemicals with a specific activity of 80 Ci/mmol. 384-well streptavidin Flashplates were purchased from PerkinElmer.
Substrates. Peptide representative of human histone H4 residues 31-45 was synthesized with an N-terminal linker-affinity tag motif and a C-terminal amide cap by 21st Century Biochemicals.
Protein Expression. E. coli (BL21(DE3) Gold, Stratagene) made competent by the CaCl2 method were transformed with the PRMT8 construct and ampicillin selection. Protein over-expression was accomplished by growing the PRMT8 expressing E. coli clone and inducing expression with 0.3 mM IPTG at 16° C. The culture was grown for 12 hours, harvested by centrifugation, and stored at −80° C. for purification.
Protein Purification. […] GST-tagged PRMT8 was eluted with 50 mM Tris, 2 mM glutathione, pH 7.8. Pooled fractions were cleaved by thrombin (10 U) and dialysed in buffer A. GST was removed by reloading the cleaved protein sample onto glutathione sepharose column and PRMT8 was collected in the flow-through fractions. PRMT8 was purified further by ceramic hydroxyapatite chromatography. The column was washed with 50 mM phosphate buffer, 100 mM NaCl, 5% glycerol, 5 mM β-mercaptoethanol, pH 7.8 and PRMT8 was eluted by 100 mM phosphate in the same buffer. Protein was concentrated and buffer was exchanged to 50 mM Tris, 300 mM NaCl, 10% glycerol, 5 mM β-mercaptoethanol, pH 7.8 by ultrafiltration.
General Procedure for PRMT8 Enzyme Assays on Peptide Substrates. The assays were all performed in a buffer consisting of 20 mM Bicine (pH=7.6), 1 mM TCEP, 0.005% BSG, and 0.002% Tween 20, prepared on the day of use. […] DMSO (1 ul) was added to Columns 11, 12, 23, 24, rows A-H for the maximum signal control and 1 ul of SAH, a known product and inhibitor of PRMT8, was added to columns 11, 12, 23, 24, rows I-P for the minimum signal control. A cocktail (40 ul) containing the PRMT8 enzyme was added by Multidrop Combi (Thermo-Fisher). The compounds were allowed to incubate with PRMT8 for 30 min at room temperature, then a cocktail (10 ul) containing ^3H-SAM and peptide was added to initiate the reaction (final volume=51 ul). […] The assays were stopped by the addition of non-radiolabeled SAM (10 ul) to a final concentration of 400 uM, which dilutes the ^3H-SAM to a level where its incorporation into the peptide substrate is no longer detectable. 50 ul of the reaction in the 384-well polypropylene plate was then transferred to a 384-well Flashplate and the biotinylated peptides were allowed to bind to the streptavidin surface for at least 1 hour before being washed once with 0.1% Tween20 in a Biotek ELx405 plate washer. The plates were then read in a PerkinElmer TopCount plate reader to measure the quantity of ^3H-labeled peptide bound to the Flashplate surface, measured as disintegrations per minute (dpm) or alternatively, referred to as counts per minute (cpm).
Where dpm=disintegrations per minute, cmpd=signal in assay well, and min and max are the respective minimum and maximum signal controls.
Where top and bottom are the normally allowed to float, but may be fixed at 100 or 0 respectively in a 3-parameter fit. The Hill Coefficient normally allowed to float but may also be fixed at 1 in a 3-parameter fit. Y is the % inhibition and X is the compound concentration.

Full-length human PRMT6 = biological target: T2, Full-length human PRMT6 (Homo sapiens, UniProt Q96LA8); test: PRMT6 biochemical assay (3H-SAM Flashplate, peptide substrate)
T2 construct: Flag-PRMT6-His was eluted with 200 ug/ml FLAG peptide in the same buffer; made in house; host or cells: HEK 293F cells (BacMam virus, pFastBacMam)
T2 sequence (Q96LA8 with tags, fused parts or gaps): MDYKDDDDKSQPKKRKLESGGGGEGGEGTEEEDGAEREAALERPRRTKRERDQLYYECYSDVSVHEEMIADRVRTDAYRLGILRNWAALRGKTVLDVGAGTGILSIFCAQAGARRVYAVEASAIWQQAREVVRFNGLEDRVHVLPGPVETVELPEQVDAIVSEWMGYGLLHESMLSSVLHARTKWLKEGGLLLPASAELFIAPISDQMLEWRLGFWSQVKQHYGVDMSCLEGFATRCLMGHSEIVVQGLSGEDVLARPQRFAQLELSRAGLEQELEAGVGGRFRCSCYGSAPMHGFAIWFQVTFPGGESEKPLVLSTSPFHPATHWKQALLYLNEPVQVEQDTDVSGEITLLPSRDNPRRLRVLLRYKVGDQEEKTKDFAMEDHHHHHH
Outline: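 Read-out is 3H-methylated histone H4 (36-50) peptide bound to streptavidin Flashplates after a cold-SAM stop. Baculovirus-expressed Flag-PRMT6-His met compound for 30 min at room temperature before SAM and peptide; Bicine pH 7.6 buffer. IC50 fitted to % inhibition normalized to SAH (min) and DMSO (max).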

T1 sequence (Q9NR22 whole entry, canonical isoform): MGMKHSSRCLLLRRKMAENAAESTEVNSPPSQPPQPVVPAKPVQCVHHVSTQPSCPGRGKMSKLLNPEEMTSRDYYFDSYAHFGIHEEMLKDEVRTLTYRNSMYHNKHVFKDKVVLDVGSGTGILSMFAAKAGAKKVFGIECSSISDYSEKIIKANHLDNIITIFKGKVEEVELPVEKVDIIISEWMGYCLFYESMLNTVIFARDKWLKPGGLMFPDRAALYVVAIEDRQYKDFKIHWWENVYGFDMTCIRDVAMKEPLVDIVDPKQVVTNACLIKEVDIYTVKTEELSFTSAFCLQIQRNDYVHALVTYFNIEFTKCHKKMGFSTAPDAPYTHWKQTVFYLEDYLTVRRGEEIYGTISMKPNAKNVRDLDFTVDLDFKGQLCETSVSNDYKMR

Row | SMILES | IC50 (Full-length human PRMT8) [nM] | IC50 (Full-length human PRMT6) [nM]
1 | CNCCN(C)Cc1c[nH]nc1-c1ccc(CO)cc1 [Compound 28] | < 100 | < 100
2 | CNCCN(C)Cc1c[nH]nc1-c1ccc(C(F)(F)F)cc1 [Compound 174] | 101 to 1000 | < 100
3 | CN(CCN)Cc1c(-c2ccc(C#N)cc2)ncn1C [Compound 222] | 3010 to 10000 | 1010 to 3000
4 | CNCCN(C)Cc1n[nH]cc1-c1ccc(Oc2ccccc2)cc1 [Compound 204] | < 100 | < 100
5 | CC(C)Oc1cccc(-c2n[nH]cc2CN(C)CCN)c1 [Compound 187] | 1010 to 3000 | < 100
6 | CNCCN(C)Cc1cnn(CC(=O)OC)c1-c1ccc(OC(C)C)cc1 [Compound 249] | 1010 to 3000 | 101 to 1000
7 | CNCCN(C)Cc1c[nH]nc1-c1ccc(Oc2ccccc2)cc1 [Compound 37] | < 100 | < 100
8 | CN(CCN(C)C1CC1)Cc1c[nH]nc1-c1ccc(C#N)cc1 [Compound 184] | 3010 to 10000 | 1010 to 3000
9 | CNCCN(C)Cc1n[nH]cc1-c1ccc(OC(C)C)c(F)c1 [Compound 210] | 101 to 1000 | < 100
10 | CNCCN(C)Cc1c[nH]nc1-c1cccc(O)c1 [Compound 26] | 1010 to 3000 | < 100
11 | CNCCN(C)Cc1c[nH]nc1-c1ccc(Cl)c(F)c1 [Compound 182] | 101 to 1000 | < 100
12 | CNCCN(C)Cc1cnn(C)c1-c1ccc(Oc2ccccc2)cc1 [Compound 208] | 101 to 1000 | < 100
13 | CCNC(=O)c1cccc(-c2n[nH]cc2CN(C)CCNC)c1 [Compound 43] | 1010 to 3000 | < 100
14 | CN(CCN)Cc1c[nH]nc1-c1ccc(Oc2cccc(F)c2)cc1 [Compound 205] | 101 to 1000 | < 100
15 | CNCCN(C)Cc1c[nH]nc1-c1ccc(C)cc1C [Compound 29] | 1010 to 3000 | < 100
16 | CNCCN(C)Cc1c[nH]nc1-c1ccc(OCCCOC)cc1 [Compound 209] | 101 to 1000 | < 100
17 | CN(CCN)Cc1c[nH]nc1-c1ccc2c(c1)N(C)C(=O)CO2 [Compound 196] | 1010 to 3000 | < 100
18 | CNCCN(C)Cc1c[nH]nc1-c1ccc(OC)cc1 [Compound 25] | 101 to 1000 | < 100
19 | CNCCN(C)Cc1cn(C(C)C)nc1-c1ccc(F)cc1 [Compound 15] | > 10000 | 101 to 1000
20 | CCN(C)C(=O)c1cccc(-c2n[nH]cc2CN(C)CCN)c1 [Compound 198] | > 10000 | 101 to 1000
21 | CC(C)CN1C(=O)COc2cc(-c3n[nH]cc3CN(C)CCN)ccc21 [Compound 193] | 101 to 1000 | 101 to 1000
22 | CCCc1ccc(-c2n[nH]cc2CN(C)CCNC)cc1 [Compound 20] | < 100 | < 100
23 | CCC(=O)N1CCN(c2ccc(-c3n[nH]cc3CN(C)CCN)cc2)CC1 [Compound 189] | 1010 to 3000 | < 100
24 | CNCCN(C)Cc1cn(C)nc1-c1ccc(Oc2ccccc2)cc1 [Compound 207] | 101 to 1000 | < 100
25 | CN(CCNC1CC1)Cc1c[nH]nc1-c1ccc(C#N)cc1 [Compound 183] | 3010 to 10000 | 101 to 1000
26 | CCNC(=O)c1cccc(-c2n[nH]cc2CN(C)CCN)c1 [Compound 197] | 1010 to 3000 | < 100
27 | CNCCN(C)Cc1cnn(C(C)C)c1-c1ccc(F)cc1 [Compound 16] | > 10000 | < 100
28 | CNCCN(C)Cc1cn(CC(=O)O)nc1-c1ccc(OC(C)C)cc1 [Compound 250] | 1010 to 3000 | 3010 to 10000
